Key:
L6 = test: Cytotoxicity against rat L6 cells
[1] = tested on: Trypanosoma brucei rhodesiense; test: Antitrypanosomal activity against Trypanosoma brucei rhodesiense STIB900; format: functional, organism-based
Leishmania donovani = test: […] activity against Leishmania donovani (MHOM/SD/62/1S-CL2D) axenic amastigotes; format: functional, organism-based
Plasmodium falciparum = test: microbe, parasite or virus in culture; details: K1
Description: Antimalarial activity against chloroquine-resistant Plasmodium falciparum K1

| Compound | IC50 (L6) [nM] | IC50 [1] [nM] | IC50 (Leishmania donovani) [nM] | IC50 (Plasmodium falciparum) [nM] |
| --- | --- | --- | --- | --- |
| N=C(N)c1ccc2oc(CCc3cc4cc(C(=N)N)ccc4o3)cc2c1 | 21500 | 8 | 1060 | 3 |
| C[C@@H]1CC[C@H]2[C@@H](C)C(=O)O[C@@H]3O[C@@]4(C)CC[C@@H]1[C@]32OO4 [ARTEMISININ] | – | – | – | 6 |
| CCN(CC)CCCC(C)Nc1ccnc2cc(Cl)ccc12 (stereo not drawn) [CHLOROQUINE] | 117000 | – | – | – |
| N=C(N)c1ccc(OCCCCCOc2ccc(C(=N)N)cc2)cc1 [PENTAMIDINE] | – | – | 1830 | – |
| COc1cc([C@@H]2c3cc4c(cc3[C@H](O)[C@H]3COC(=O)[C@H]23)OCO4)cc(OC)c1OC [PODOFILOX] | 10 | – | – | – |
